Experimental data reported in patent publication US11208399B2, “NLRP3 inflammasome inhibitors” (Novartis AG, priority 2019, dated 2021).
Where a name gives a salt, the structure may show the parent alone. Read-outs that look alike come from different tables or passages of the source.

Key:
[1] = system: NF-kB-dependent TNF-α secretion; test: TNF-α secretion assay in THP-1 cells (counter screen, HTRF); format: cell-based; details: Pam3CSK4-stimulated, 3 hours
Procedure: Monocytic THP-1 cells were maintained according to providers' instructions in RPMI media as described above. […] Experimental compounds were prepared and added as described above. TNF-α secretion was triggered by the addition of either 1 μg/mL LPS (Sigma, #L4391) or 100 ng/mL Pam3CSK4 (Invivogen, #tlrl-pms) depending on the experiment, and cells were incubated for 3 hours. 10 μL supernatant was removed, and TNF-α levels were monitored using an HTRF assay (CisBio, #62TNFPEC) according to manufacturers' instructions. Viability was monitored as described above.
IC50 values were calculated from the plot of percentage of inhibition versus the inhibitor concentration by a logistics fit according to: y=A2+(A1−A2)/(1+(x/IC50)^p) where y is the %-inhibition at the inhibitor concentration, x. A1 is the lowest inhibition value, i.e. 0%, and A2 the maximum inhibition value, i.e. 100%. The exponent, p, is the Hill coefficient. The curve fitting was conducted with an internally developed software suite. […]

NLRP3 inflammasome = test: IL-1β secretion assay in PMA-differentiated THP-1 cells, nigericin-activated (HTRF); format: cell-based
Procedure: 10 μL supernatant was removed, and IL-1p levels were monitored using an HTRF assay (CisBio, #621L1PEC) according to manufacturers' instructions. Viability and pyroptosis was monitored with the addition of PrestoBlue cell viability reagent (Life Technologies, #A13261) directly to the cell culture plate.
IC50 values were calculated from the plot of percentage of inhibition versus the inhibitor concentration by a logistics fit according to: y=A2+(A1−A2)/(1+(x/IC50)^p) where y is the %-inhibition at the inhibitor concentration, x. A1 is the lowest inhibition value, i.e. 0%, and A2 the maximum inhibition value, i.e. 100%. The exponent, p, is the Hill coefficient. The curve fitting was conducted with an internally developed software suite.
NLRP3-dependent IL-1β secretion was stimulated in PMA-differentiated THP-1 cells by the addition of nigericin, and cytokines were measured in the […] after 3 hours. As discussed above, activation of the NLRP3 inflammasome requires both an NF-kB-dependent priming step and the addition of a NLRP3 activator.

[2] = Homo sapiens, 15 μM nigericin, 3 hours, read-out: IL-1β IC50

Row | Structure (SMILES) | IC50 ([1]; Homo sapiens) [nM] | IC50 (NLRP3 inflammasome; [2]) [nM] | IC50 [1] [nM] | IC50 (NLRP3 inflammasome; read-out: IL-1β IC50, 15 μM nigericin, 3 hours) [nM]
1 | Cc1ncccc1CNc1ccc(-c2c(O)cc(C(F)(F)F)cc2Cl)nn1 [Ex 34, 3-Chloro-2-(6-(((2-methylpyridin-3-yl)methyl)amino)pyridazin-3-yl)-5-(trifluoromethyl)phenol] | > 100000 | 496 |  | 
2 | Cc1ncccc1CNc1ccc(-c2c(O)cc(Cl)cc2C(F)(F)F)nn1 [Ex 35, 5-Chloro-2-(6-(((2-methylpyridin-3-yl)methyl)amino)pyridazin-3-yl)-3-(trifluoromethyl)phenol] | > 100000 | 243 |  | 
3 | OCCNc1ccc(-c2c(O)cc(C(F)(F)F)cc2Cl)nn1 [Ex 37, 3-Chloro-2-(6-((2-hydroxyethyl)amino)pyridazin-3-yl)-5-(trifluoromethyl)phenol] | > 100000 | 381 |  | 
4 | Cc1cc(C(F)(F)F)cc(O)c1-c1ccc(Nc2cncnc2)nn1 [Ex 43, 3-Methyl-2-(6-(pyrimidin-5-ylamino)pyridazin-3-yl)-5-(trifluoromethyl)phenol] | 25000 | 281 |  | 
5 | Cc1cc(C(F)(F)F)cc(O)c1-c1ccc(NC2(C)CCCN(C)C2)nn1 (stereo not shown) [Ex 52, 2-(6-((1,3-Dimethylpiperidin-3-yl)amino)pyridazin-3-yl)-3-methyl-5-(trifluoromethyl)phenol TFA-salt] | > 100000 | 186 |  | 
6 | Cc1cc(-c2c(C)cc(C(F)(F)F)cc2O)nnc1N[C@H]1C[C@@](C)(O)C1 [Ex 54, 2-(6-(((cis)-3-Hydroxy-3-methylcyclobutyl)amino)-5-methylpyridazin-3-yl)-3-methyl-5-(trifluoromethyl)phenol] | 35000 | 11.8 |  | 
7 | Cc1cc(N[C@H]2C[C@@](C)(O)C2)nnc1-c1ccc(C(F)(F)F)cc1O [Ex 55, 2-(6-(((cis)-3-Hydroxy-3-methylcyclobutyl)amino)-4-methylpyridazin-3-yl)-5-(trifluoromethyl)phenol] | 45000 | 45.8 |  | 
8 | Cc1cc(C(F)(F)F)cc(O)c1-c1cc(C(F)(F)F)c(N[C@H]2C[C@@](C)(O)C2)nn1 [Ex 56, 2-(6-(((cis)-3-Hydroxy-3-methylcyclobutyl)amino)-5-(trifluoromethyl)pyridazin-3-yl)-3-methyl-5-(trifluoromethyl)phenol] | > 100000 | 8.3 |  | 
9 | Cc1cc(C(F)(F)F)cc(O)c1-c1ccc(N[C@H]2CCC[C@H](O)C2)nn1 [Ex 57, 2-(6-(((1S,3S)-3-Hydroxycyclohexyl)amino)pyridazin-3-yl)-3-methyl-5-(trifluoromethyl)phenol] | 84000 | 224 |  | 
10 | Cc1cc(C(F)(F)F)cc(O)c1-c1ccc(N[C@@H]2CCC[C@@H](O)C2)nn1 [Ex 58, 2-(6-(((1R,3R)-3-Hydroxycyclohexyl)amino)pyridazin-3-yl)-3-methyl-5-(trifluoromethyl)phenol] | > 100000 | 58.4 |  | 
11 | Cc1cc(C(F)(F)F)cc(O)c1-c1ccc(N[C@@H]2CCCN(C)C2=O)nn1 [Ex 59, (R)-3-((6-(2-Hydroxy-6-methyl-4-(trifluoromethyl)phenyl)pyridazin-3-yl)amino)-1-methylpiperidin-2-one] | > 100000 | 35.9 |  | 
12 | Cc1cc(C(F)(F)F)cc(O)c1-c1ccc(NC[C@@H](F)C(C)(C)O)nn1 [Ex 60, (R)-2-(6-((2-Fluoro-3-hydroxy-3-methylbutyl)amino)pyridazin-3-yl)-3-methyl-5-(trifluoromethyl)phenol] | > 100000 | 140 |  | 
13 | Cc1cc(C(F)(F)F)cc(O)c1-c1ccc(N[C@@H]2CCC(=O)NC2)nn1 [Ex 61, (R)-5-((6-(2-Hydroxy-6-methyl-4-(trifluoromethyl)phenyl)pyridazin-3-yl)amino)piperidin-2-one] | > 100000 | 65.8 |  | 
14 | C[C@]1(O)C[C@@H](Nc2cc(C(F)(F)F)c(-c3ccc(C(F)(F)F)cc3O)nn2)C1 [Ex 66, 2-(6-(((cis)-3-Hydroxy-3-methylcyclobutyl)amino)-4-(trifluoromethyl)pyridazin-3-yl)-5-(trifluoromethyl)phenol] | > 33000 | 187 |  | 
15 | Cc1cc(C(F)(F)F)cc(O)c1-c1ccc(N[C@H]2C[C@](O)(C(F)(F)F)C2)nn1 [Ex 67, 2-(6-(((cis)-3-Hydroxy-3-(trifluoromethyl)cyclobutyl)amino)pyridazin-3-yl)-3-methyl-5-(trifluoromethyl)phenol] | 46000 | 40.1 |  | 
16 | Cc1cc(N[C@H]2C[C@@](C)(O)C2)nnc1-c1ccc(Cl)cc1O [Ex 68, 5-Chloro-2-(6-(((cis)-3-hydroxy-3-methylcyclobutyl)amino)-4-methylpyridazin-3-yl)phenol] | > 100000 | 89.3 |  | 
17 | C[C@]1(O)C[C@@H](Nc2cc(C(F)(F)F)c(-c3ccc(Cl)cc3O)nn2)C1 [Ex 69, 5-Chloro-2-(6-(((cis)-3-hydroxy-3-methylcyclobutyl)amino)-4-(trifluoromethyl)pyridazin-3-yl)phenol] | > 33000 | 431 |  | 
18 | Cc1cc(-c2c(C)cc(C(F)(F)F)cc2O)nnc1NCC(C)(C)O [Ex 72, 2-(6-((2-Hydroxy-2-methylpropyl)amino)-5-methylpyridazin-3-yl)-3-methyl-5-(trifluoromethyl)phenol] | > 100000 | 44.9 |  | 
19 | Cc1cc(NCC(C)(C)O)nnc1-c1c(C)cc(C(F)(F)F)cc1O [Ex 73, 2-(6-((2-Hydroxy-2-methylpropyl)amino)-4-methylpyridazin-3-yl)-3-methyl-5-(trifluoromethyl)phenol] | 55000 | 154 |  | 
20 | Cc1cc(C(F)(F)F)cc(O)c1-c1ccc(NC[C@@H]2C[C@H](F)CN2)nn1 [Ex 75, 2-(6-((((2S,4S)-4-Fluoropyrrolidin-2-yl)methyl)amino)pyridazin-3-yl)-3-methyl-5-(trifluoromethyl)phenol] | > 100000 | 18.3 |  | 
21 | Cc1cc(C(F)(F)F)cc(O)c1-c1ccc(NC[C@@H]2C[C@@H](F)CN2)nn1 [Ex 76, 2-(6-((((2S,4R)-4-Fluoropyrrolidin-2-yl)methyl)amino)pyridazin-3-yl)-3-methyl-5-(trifluoromethyl)phenol] | > 100000 | 89.7 |  | 
22 | Cc1cc(C(F)(F)F)cc(O)c1-c1ccc(NC[C@](C)(O)C(F)(F)F)nn1 [Ex 78, (S)-3-Methyl-2-(6-((3,3,3-trifluoro-2-hydroxy-2-methylpropyl)amino)pyridazin-3-yl)-5-(trifluoromethyl)phenol HCl-salt] | > 100000 | 198 |  | 
23 | Cc1cc(C(F)(F)F)cc(O)c1-c1ccc(NC(C)(C)CO)nn1 [Ex 79, 2-(6-((1-Hydroxy-2-methylpropan-2-yl)amino)pyridazin-3-yl)-3-methyl-5-(trifluoromethyl)phenol] | > 100000 | 370 |  | 
24 | Cc1cc(N[C@H]2C[C@@](C)(O)C2)nnc1-c1ccc(OC(F)(F)F)cc1O [Ex 81, 2-(6-(((cis)-3-Hydroxy-3-methylcyclobutyl)amino)-4-methylpyridazin-3-yl)-5-(trifluoromethoxy)phenol] | > 100000 | 130 |  | 
25 | Cc1cc(C(F)(F)F)cc(O)c1-c1ccc(N[C@@H]2CCCN3CCC[C@H]23)nn1 [Ex 83a, 3-Methyl-2-(6-(((8R,8aR)-octahydroindolizin-8-yl)amino)pyridazin-3-yl)-5-(trifluoromethyl) phenol] | > 100000 | 0.8 |  | 
26 | Cc1cc(C(F)(F)F)cc(O)c1-c1ccc(N[C@H]2CCCN3CCC[C@@H]23)nn1 [Ex 83b, 3-Methyl-2-(6-(((8S,8aS)-octahydroindolizin-8-yl)amino)pyridazin-3-yl)-5-(trifluoromethyl) phenol] | > 100000 | 69.4 |  | 
27 | Cc1cc(C(F)(F)F)cc(O)c1-c1ccc(NC[C@H]2CCCCN2CCO)nn1 [Ex 84a, (R)-2-(6-(((1-(2-Hydroxyethyl)piperidin-2-yl)methyl)amino)pyridazin-3-yl)-3-methyl-5-(trifluoromethyl)phenol] | > 100000 | 42.5 |  | 
28 | Cc1cc(C(F)(F)F)cc(O)c1-c1ccc(NC[C@@H]2CCCCN2CCO)nn1 [Ex 84b, (S)-2-(6-(((1-(2-Hydroxyethyl)piperidin-2-yl)methyl)amino)pyridazin-3-yl)-3-methyl-5-(trifluoromethyl)phenol] | > 33000 | 53.3 |  | 
29 | Cc1cc(C(F)(F)F)cc(O)c1-c1ccc(N[C@@H]2CC[C@@H]3CC[C@H]2N3C)nn1 [Ex 85b, 3-Methyl-2-(6-(((1R,2R,5R)-8-methyl-8-azabicyclo[3.2.1]octan-2-yl)amino)pyridazin-3-yl)-5-(trifluoromethyl)phenol] |  |  | > 100000 | 1.3
